The NIST ThermoML archive (doi:10.1021/je800894y)
Numbers after ± are expanded uncertainties.

Test: xn = mol fraction of the nth substance listed
Details: Liquid; for viscosity: Vibrating wire viscometry; for mass density: vibrating-wire apparatus

CC(C)CCCC(C)CCCC(C)CCCCC(C)CCCC(C)CCCC(C)C (stereo unspecified) [2,6,10,15,19,23-hexamethyltetracosane] + O=C=O
Details	mass density [kg/m3]	viscosity [mPa·s]
398.13 K, 10940 kPa, x2 = 0.6039	749.2 ± 1.5	1.01 ± 0.02
398.13 K, 11100 kPa, x2 = 0.6039	748.9 ± 1.5	1 ± 0.02
398.13 K, 30870 kPa, x2 = 0.6039	771.8 ± 1.5	1.3 ± 0.03
398.13 K, 50550 kPa, x2 = 0.6039	789.2 ± 1.6	1.61 ± 0.03
398.13 K, 70810 kPa, x2 = 0.6039	804.2 ± 1.6	1.95 ± 0.04
398.13 K, 91230 kPa, x2 = 0.6039	817.2 ± 1.6	2.31 ± 0.05
398.13 K, 110700 kPa, x2 = 0.6039	828.2 ± 1.7	2.69 ± 0.06
398.13 K, 131240 kPa, x2 = 0.6039	838.7 ± 1.7	3.12 ± 0.06
398.13 K, 150740 kPa, x2 = 0.6039	847.7 ± 1.7	3.57 ± 0.07
398.13 K, 170660 kPa, x2 = 0.6039	856.2 ± 1.7	4.08 ± 0.08
398.31 K, 10790 kPa, x2 = 0.4233	749 ± 1.5	1.38 ± 0.03
398.31 K, 10830 kPa, x2 = 0.4233	755.3 ± 1.5	1.39 ± 0.03
398.31 K, 30180 kPa, x2 = 0.4233	768.1 ± 1.5	1.79 ± 0.04
398.31 K, 50350 kPa, x2 = 0.4233	784 ± 1.6	2.24 ± 0.05
398.31 K, 70500 kPa, x2 = 0.4233	797.4 ± 1.6	2.74 ± 0.06
398.31 K, 90450 kPa, x2 = 0.4233	808.9 ± 1.6	3.3 ± 0.07
398.31 K, 110290 kPa, x2 = 0.4233	819.1 ± 1.6	3.92 ± 0.08
398.31 K, 130350 kPa, x2 = 0.4233	828.4 ± 1.7	4.62 ± 0.1
398.31 K, 150520 kPa, x2 = 0.4233	837.2 ± 1.7	5.4 ± 0.11
398.31 K, 170000 kPa, x2 = 0.4233	845 ± 1.7	6.24 ± 0.13
398.33 K, 30150 kPa, x2 = 0.7882	760.4 ± 1.5	0.62 ± 0.01
398.33 K, 30500 kPa, x2 = 0.7882	759.9 ± 1.5	0.62 ± 0.02
398.33 K, 50500 kPa, x2 = 0.7882	786.7 ± 1.6	0.78 ± 0.02
398.33 K, 70580 kPa, x2 = 0.7882	807.3 ± 1.6	0.94 ± 0.02
398.33 K, 90510 kPa, x2 = 0.7882	824.2 ± 1.6	1.1 ± 0.02
398.33 K, 110760 kPa, x2 = 0.7882	839 ± 1.7	1.28 ± 0.03
398.33 K, 130550 kPa, x2 = 0.7882	851.6 ± 1.7	1.46 ± 0.03
398.33 K, 150620 kPa, x2 = 0.7882	863.2 ± 1.7	1.65 ± 0.03
398.33 K, 170310 kPa, x2 = 0.7882	873.6 ± 1.7	1.84 ± 0.04
448.13 K, 10630 kPa, x2 = 0.6039	713.1 ± 1.4	0.69 ± 0.02
448.13 K, 11010 kPa, x2 = 0.6039	713.3 ± 1.4	0.68 ± 0.02
448.13 K, 30730 kPa, x2 = 0.6039	739.7 ± 1.5	0.89 ± 0.02
448.13 K, 50590 kPa, x2 = 0.6039	759.8 ± 1.5	1.09 ± 0.02
448.13 K, 70380 kPa, x2 = 0.6039	776.6 ± 1.6	1.22 ± 0.03
448.13 K, 91380 kPa, x2 = 0.6039	791.8 ± 1.6	1.43 ± 0.03
448.13 K, 111050 kPa, x2 = 0.6039	804.5 ± 1.6	1.63 ± 0.03
448.13 K, 130810 kPa, x2 = 0.6039	815.7 ± 1.6	1.84 ± 0.04
448.13 K, 150960 kPa, x2 = 0.6039	826 ± 1.7	2.08 ± 0.04
448.13 K, 171000 kPa, x2 = 0.6039	835.3 ± 1.7	2.35 ± 0.05
448.35 K, 11450 kPa, x2 = 0.4233	715.2 ± 1.4	0.8 ± 0.02
448.35 K, 11570 kPa, x2 = 0.4233	720.6 ± 1.4	0.81 ± 0.02
448.35 K, 30330 kPa, x2 = 0.4233	737.6 ± 1.5	1.04 ± 0.02
448.35 K, 50410 kPa, x2 = 0.4233	756.5 ± 1.5	1.3 ± 0.03
448.35 K, 70450 kPa, x2 = 0.4233	771.8 ± 1.5	1.57 ± 0.03
448.35 K, 90670 kPa, x2 = 0.4233	785.2 ± 1.6	1.86 ± 0.04
448.35 K, 110310 kPa, x2 = 0.4233	796.6 ± 1.6	2.17 ± 0.05
448.35 K, 130440 kPa, x2 = 0.4233	807 ± 1.6	2.52 ± 0.05
448.35 K, 150510 kPa, x2 = 0.4233	816.5 ± 1.6	2.88 ± 0.06
448.35 K, 169900 kPa, x2 = 0.4233	824.8 ± 1.7	3.28 ± 0.07
448.41 K, 30160 kPa, x2 = 0.7882	714.5 ± 1.4	0.41 ± 0.01
448.41 K, 30820 kPa, x2 = 0.7882	714.9 ± 1.4	0.41 ± 0.01
448.41 K, 50450 kPa, x2 = 0.7882	748 ± 1.5	0.52 ± 0.01
448.41 K, 70350 kPa, x2 = 0.7882	772.5 ± 1.5	0.63 ± 0.01
448.41 K, 90420 kPa, x2 = 0.7882	792.3 ± 1.6	0.74 ± 0.02
448.41 K, 110590 kPa, x2 = 0.7882	809.1 ± 1.6	0.85 ± 0.02
448.41 K, 130360 kPa, x2 = 0.7882	823.3 ± 1.6	0.97 ± 0.02
448.41 K, 150480 kPa, x2 = 0.7882	836.2 ± 1.7	1.1 ± 0.02
448.41 K, 169720 kPa, x2 = 0.7882	847.5 ± 1.7	1.22 ± 0.03
